From the Deep4Chem optical property database
Several values for one entry are separate records, joined by “and”; a condition that tells them apart may be missing. Identical values can stand only once.

Assay: solvent given as SMILES

Cc1cc(N(C)C)cc(C)c1/C=C/C=C/c1ccc(C#N)cc1
emission maximum (in CC#N): 599 nm | emission maximum (in CCCCCC): 442 nm | emission maximum (in CCOCC): 527 nm

c1ccc(-c2c3ccc(=[N+]4CCCCC4)cc-3oc3cc(N4CCCCC4)ccc23)cc1
emission maximum (in CCO): 588 nm | emission maximum (in ClCCl): 585 nm

CCN(CC)c1ccc2cc(C#N)/c(=N\C(C)=O)oc2c1
emission maximum (in CCO): 462 nm | emission maximum (in ClCCl): 460 nm

CCCCn1c2ccc(C#Cc3cccs3)cc2c2c1c1c3ccc(C#Cc4cccs4)cc3n(CCCC)c1c1c3ccc(C#Cc4cccs4)cc3n(CCCC)c21
emission maximum (in C1CCOC1): 430 nm

O=c1c2ccccc2n2c3ccccc3c(=O)c3cc(-c4ccccc4)cc1c32
emission maximum (in CC#N): 475 nm | emission maximum (in CCCCCC): 447 nm | emission maximum (in CCCCOCCCC): 454 nm | emission maximum (in CCOC(C)=O): 464 nm | emission maximum (in CN(C)C=O): 477 nm | emission maximum (in Cc1ccccc1): 464.98 nm | emission maximum (in c1cc(-c2cccc(-n3c4ccccc4c4ccccc43)c2)cc(-n2c3ccccc3c3ccccc32)c1): 472 nm | emission maximum (in c1cc(-n2c3ccccc3c3ccccc32)cc(-n2c3ccccc3c3ccccc32)c1): 472 nm

Brc1ccc(N(c2ccc(/C=C/c3ccncn3)cc2)c2ccc(/C=C/c3ccncn3)cc2)cc1
emission maximum (in ClCCl): 555 nm

O=[N+]([O-])c1ccc2c(ccc3[n+]2[B-](F)(F)n2c-3cc3c4ccccc4c4ccccc4c32)c1
emission maximum (in ClCCl): 631 nm

CCCC[Si](C)(C)c1cccc2ccccc12
emission maximum (in C1CCCCC1): 329 nm

CCOC(=O)/C=C/c1cc2ccc(O)cc2oc1=O
emission maximum (in CCO): 430 nm

Cc1ccc2[nH]c(-c3ccc(-c4ccc(-c5ccc(-c6nc7cc(C)ccc7[nH]6)cc5)cc4)cc3)nc2c1
emission maximum (in CN(C)C=O): 416 nm

COc1cccc(C2=c3c(c4ccc(C(C)(C)C)cc4c4cc(C(C)(C)C)ccc34)=[N+]3C2=C(c2ccccc2)c2c(-c4cccc(OC)c4)c4c5ccc(C(C)(C)C)cc5c5cc(C(C)(C)C)ccc5c4n2[B-]3(F)F)c1
emission maximum (in C1CCCCC1): 727 nm | emission maximum (in C1CCOC1): 737 nm | emission maximum (in CC#N): 721 nm | emission maximum (in Cc1ccccc1): 730 nm | emission maximum (in ClCCl): 737 nm

COc1ccc(C(=Cc2ccc(C#N)cc2)c2ccc(OC)cc2)cc1
emission maximum (in C1CCOC1): 395 nm

COc1ccc(C2=C(c3ccc(OC)cc3)C(C)(C)c3cc(-c4ccccc4)ccc32)cc1
emission maximum (in C1CCCCC1): 417 nm

CCC1=C(C)C2=Cc3c(I)c(I)cn3[B-](F)(F)[N+]2=C1C
emission maximum (in C1CCCCC1): 537 nm | emission maximum (in CC(C)=O): 544 nm | emission maximum (in CCO): 541.5 nm | emission maximum (in CCOC(C)=O): 539.5 nm | emission maximum (in CO): 541.5 nm | emission maximum (in OCC(F)(F)F): 538 nm

CCCCCCCCCCn1nnc(-c2ccc(C#Cc3ccc(C#Cc4ccc(-c5nnn(CCCCCCCCCC)n5)cc4)c4nc5c6ccccc6c6ccccc6c5nc34)cc2)n1
emission maximum (in C1CCOC1): 495 nm | emission maximum (in Cc1ccccc1): 488 nm | emission maximum (in ClCCl): 502 nm

Cc1cc2c3ccccc3oc2c2c1c1ccccc1n2-c1ccc(C#N)cc1
emission maximum (in CCOC(C)=O): 379 nm | emission maximum (in CS(C)=O): 440 nm | emission maximum (in ClCCl): 420 nm

CNc1ccc2c(c1)-c1ccccc1C2=O
emission maximum (in C1CCCCC1): 489 nm | emission maximum (in CC#N): 548 nm | emission maximum (in CCO): 583 nm | emission maximum (in c1ccccc1): 509 nm

CC(C)(C)c1ccc2oc3nc4oc5cc(-n6c7ccccc7c7ccccc76)ccc5c4cc3c2c1
emission maximum (in ClC(Cl)Cl): 396 nm

Cc1cc(C)c(B(c2c(C)cc(C)cc2C)c2c(C)cc(-n3c4ccc(N(c5ccccc5)c5ccccc5)cc4c4cc(N(c5ccccc5)c5ccccc5)ccc43)cc2C)c(C)c1
emission maximum (in Cc1ccccc1): 495 nm | emission maximum (in O=P(c1ccccc1)(c1ccccc1)c1ccccc1Oc1ccccc1P(=O)(c1ccccc1)c1ccccc1): 487 nm

Fc1c(F)c(F)c([B-]2(c3c(F)c(F)c(F)c(F)c3F)Oc3c(ccc4c5c(ccc34)C=[N+](c3ccccc3)[B-](c3c(F)c(F)c(F)c(F)c3F)(c3c(F)c(F)c(F)c(F)c3F)O5)C=[N+]2c2ccccc2)c(F)c1F
emission maximum (in C1CCOC1): 578 nm | emission maximum (in CC#N): 577 nm | emission maximum (in CC(C)=O): 578 nm | emission maximum (in Cc1ccccc1): 580 nm | emission maximum (in ClCCl): 580 nm

Cc1ccc(C2=C3C=C4C(=[N+]3[B-](F)(F)n3c2cc2c3-c3ccccc3C23c2ccccc2-c2ccccc23)c2ccccc2C42c3ccccc3-c3ccccc32)cc1
emission maximum (in C1CCOC1): 642 nm

CCC[n+]1ccc(/C=C/c2ccc(N(C)C)cc2)cc1
emission maximum (in C1COCCO1): 557 nm | emission maximum (in CC(C)O): 571 nm | emission maximum (in CCCCO): 576 nm | emission maximum (in CCCO): 576 nm | emission maximum (in CCO): 576 nm | emission maximum (in CO): 579 nm | emission maximum (in CS(C)=O): 589 nm | emission maximum (in ClC(Cl)Cl): 560 nm | emission maximum (in ClCCl): 560 nm | emission maximum (in c1ccccc1): 552 nm

COc1ccc(/C=C/C2=[O+][B-](F)(F)OC(/C=C/c3ccc(OC)cc3)=C2c2cccc(OC)c2)cc1
emission maximum (in ClCCl): 556 nm

CCCCCCOc1cc(N(CC)CC)ccc1/C=C/C(=C(C#N)C#N)c1ccc(N(c2ccccc2)c2ccccc2)cc1
emission maximum (in ClCCl): 595 nm

Cc1ccc2ccc3c(C)ccc4ccc1c2c43
emission maximum (in CCCCCC): 380 nm | emission maximum (in CO): 381 nm | emission maximum (in ClCCl): 382 nm

CSc1nc(-c2ccc(-n3c4ccccc4c4ccccc43)cc2)cc(-c2ccc(-n3c4ccccc4c4ccccc43)cc2)n1
emission maximum (in C1CCOC1): 447 nm | emission maximum (in CN(C)C=O): 497 nm | emission maximum (in Cc1ccccc1): 410 nm | emission maximum (in ClC(Cl)Cl): 446 nm

O=C(O)CCCc1cc2ccc3cccc4ccc(c1)c2c34
emission maximum (in CO): 374 nm

O=c1oc2c(ccc3ccccc32)nc1-c1ccccc1
emission maximum (in CC#N): 490 nm | emission maximum (in CCCCCC): 459 nm | emission maximum (in CO): 511 nm | emission maximum (in c1ccccc1): 478 nm and 468 nm

CCCCOc1ccc(-c2cc(-c3ccc(OCCCC)cc3)c3ccc4c(-c5ccc(OCCCC)cc5)cc(-c5ccc(OCCCC)cc5)c5ccc2c3c54)cc1
emission maximum (in ClC(Cl)Cl): 433 nm

CC(=O)Nc1ccc2c(c1)c(=O)c1ccccc1n2CCCCCC(=O)O
emission maximum (in O): 450 nm

O=S1(=O)C2=C(c3ccccc31)C1(C3=C(c4ccccc41)S(=O)(=O)c1ccccc13)c1ccccc12
emission maximum (in ClCCl): 444 nm

CCCCC(CC)CN1C(=O)c2cc(Oc3ccc(C(C)(C)C)cc3)c3c4c(Cl)cc5c6c(cc(Cl)c(c7c(Oc8ccc(C(C)(C)C)cc8)cc(c2c37)C1=O)c64)C(=O)N(c1c(C(C)C)cccc1C(C)C)C5=O (stereo not given)
emission maximum (in Cc1ccccc1): 606 nm

CCCCn1c(-c2ccc(-c3ccc(-c4ccc(-c5n(CCCC)c6cc(C)ccc6[n+]5CCCC)cc4)cc3)cc2)[n+](CCCC)c2ccc(C)cc21
emission maximum (in O): 397 nm

CCC(CC)COC1=CC2=C3c4cc(OCC(CC)CC)c(-c5ccccc5)n4[B-](F)(F)[n+]4c3n(c3cc(C(C)(C)C)ccc34)[B-](F)(F)[N+]2=C1c1ccccc1
emission maximum (in C1CCOC1): 734 nm | emission maximum (in CC#N): 733 nm | emission maximum (in ClCCl): 736 nm

COc1ccc(C2=Cc3cc4ccccc4cc3P2(=O)c2ccccc2)cc1 (stereo not given)
emission maximum (in ClCCl): 448 nm

CCCCCCCCC1(CCCCCCCC)c2cc(C=O)ccc2-c2ccc(/C=C/c3ccc(N(c4ccccc4)c4ccccc4)cc3)cc21
emission maximum (in C1CCOC1): 451 nm | emission maximum (in C1COCCO1): 450 nm | emission maximum (in CC#N): 486 nm | emission maximum (in CC(C)=O): 481 nm | emission maximum (in CCCCCC): 442 nm | emission maximum (in CCOC(C)=O): 456 nm | emission maximum (in CN(C)C=O): 490 nm | emission maximum (in CS(C)=O): 485 nm | emission maximum (in Cc1ccccc1): 451 nm | emission maximum (in ClC(Cl)Cl): 459 nm | emission maximum (in ClCCl): 469 nm

CN(C)c1ccc(-c2nc3c(c4c2-c2ccccc2CC4)-c2ccccc2CC3)cc1
emission maximum (in C1CCOC1): 452 nm | emission maximum (in CC#N): 463 nm | emission maximum (in CCCCCC): 422 nm | emission maximum (in CCOC(C)=O): 449 nm | emission maximum (in CO): 460 nm | emission maximum (in CS(C)=O): 470 nm | emission maximum (in Cc1ccccc1): 436 nm | emission maximum (in ClCCl): 449 nm
